In patent US20250009706A1, “COMPOSITIONS AND METHODS FOR TREATING OPIOID DEPENDENCE AND WITHDRAWAL” (CASE WESTERN RESERVE UNIVERSITY, priority 2021, published 2025):

Assays:
morphine dependent rats = assay: Naloxone-precipitated withdrawal responses in morphine dependent rats; assay type: in vivo, rat
Method: Rats received a depot subcutaneous injection of morphine (150 mg/kg) with or without continuous infusion of D-CYSee (20 μmol/kg/hour, IV) and one day later the rats received an intraperitoneal injection of naloxone HCl (1.5 mg/kg) to elicit withdrawal responses.

[1] = test system: morphine-exposed mouse pups; assay: Neonatal opioid withdrawal syndrome (NOWS): naloxone-precipitated somatic signs in morphine-exposed mouse pups; assay type: in vivo; conditions: D-CYSee 30 mg/kg s.c. given prior to naloxone 1.0 mg/kg
Method: FIG. 2 illustrates a schematic timeline of an assay of neonatal morphine exposure of female mice for determining neonatal opioid withdrawal syndrome (NOWS). Female mice are implanted with osmotic mini-pumps containing 20 mg/kg/day morphine sulfate and mated. Offspring are injected twice daily with 10 mg/kg morphine for 14 days.
FIG. 4 illustrates a graph showing D-CYSee modulates NOWS. […] D-CYSee (30 mg/kg s.c.) given prior to naloxone (1.0 mg/kg) reduces all somatic signs of withdrawal except for jumping behavior, which is enhanced.

[2] = rats, D-CYSee 20 μmol/kg/hour IV, naloxone HCl 1.5 mg/kg i.p.

With CCOC(=O)[C@H](N)CS [D-CYSee, D-cysteine ethyl ester] the withdrawal responses (morphine dependent rats; morphine 150 mg/kg depot s.c., D-CYSee 20 μmol/kg/hour IV continuous infusion, naloxone HCl 1.5 mg/kg i.p. one day later) was “markedly diminishes”, the “change in mean arterial blood pressure” value (morphine dependent rats; [2]) was “attenuated” and the circling behavior (morphine dependent rats; [2]) was “attenuated”. For the same molecule, the episodes of apneas (morphine dependent rats; [2]) was “attenuated”, the “episodes of fore-paw licking” value (morphine dependent rats; [2]) was “attenuated” and the episodes of sneezing (morphine dependent rats; [2]) was “attenuated”. The jumping behavior (morphine dependent rats; [2]) was “attenuated”, the rearing behavior (morphine dependent rats; [2]) was “attenuated” and the body tremors [1] was “reduces”. For the same molecule, the “jumps (jumping behavior)” value [1] was “enhanced”, the paw tremors [1] was “reduces” and the wall climbs [1] was “reduces”.
